# Key:
# Rattus norvegicus [1] = assay: Anti-inflammatory activity in Rattus norvegicus Sprague-Dawley (rat) assessed as inhibition of carrageenan-induced paw edema at 10 mg/kg, po after 1.5 to 3 hr relative to control; assay type: functional
# Rattus norvegicus [2] = assay: Ulcerogenic activity in Rattus norvegicus Sprague-Dawley (rat) assessed as ulcer index at 10 mg/kg, po after 8 hr; assay type: toxicity, organism-based; set-up: dose 10 mg/kg, route oral; conditions: in vivo
# [3] = molecular target: T1, Prostaglandin G/H synthase 1 (Ovis aries) (UniProt P05979); assay: Inhibition of Ovis aries (sheep) COX-1 assessed as appearance of oxidized N,N,N',N'-tetramethyl-p-phenylenediamine at 20 uM by colorimetric analysis
# T1 sequence (whole entry): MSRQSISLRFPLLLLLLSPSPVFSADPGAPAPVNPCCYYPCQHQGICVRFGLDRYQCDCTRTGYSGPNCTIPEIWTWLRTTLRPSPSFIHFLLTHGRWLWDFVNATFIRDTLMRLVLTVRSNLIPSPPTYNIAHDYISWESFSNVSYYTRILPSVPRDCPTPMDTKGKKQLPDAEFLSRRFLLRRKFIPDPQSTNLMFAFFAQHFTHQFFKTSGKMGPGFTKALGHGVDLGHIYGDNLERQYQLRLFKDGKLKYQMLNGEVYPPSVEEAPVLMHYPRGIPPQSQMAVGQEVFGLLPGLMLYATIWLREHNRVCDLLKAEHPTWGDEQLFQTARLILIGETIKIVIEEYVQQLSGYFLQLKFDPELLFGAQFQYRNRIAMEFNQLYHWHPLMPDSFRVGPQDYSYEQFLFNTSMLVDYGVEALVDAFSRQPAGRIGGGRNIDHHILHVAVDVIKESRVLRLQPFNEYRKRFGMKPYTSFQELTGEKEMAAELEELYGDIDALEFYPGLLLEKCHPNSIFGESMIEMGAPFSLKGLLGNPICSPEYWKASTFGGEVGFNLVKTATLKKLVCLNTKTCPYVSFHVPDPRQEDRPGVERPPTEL
SMILES,inhibition in vivo at 10 mg/kg (Rattus norvegicus [1]) [%],UI (Rattus norvegicus [2]),inhibition [3] [%]
COc1ccc2c(c1)c(CC(=O)O)c(C)n2C(=O)c1ccc(Cl)cc1 [INDOMETHACIN],13.9,50,
COc1ccc2c(c1)c(CC(=O)OCCc1c(C)cc(C)cc1C)c(C)n2C(=O)c1ccc(Cl)cc1,9.04,,
COc1ccc2c(c1)c(CC(=O)OCc1ccoc1)c(C)n2C(=O)c1ccc(Cl)cc1,0,,
COc1ccc2c(c1)c(CC(=O)OCCN1CCNCC1)c(C)n2C(=O)c1ccc(Cl)cc1,0,,
COc1ccc2c(c1)c(CC(=O)OCCN1CCCCC1)c(C)n2C(=O)c1ccc(Cl)cc1,7.23,,
COc1ccc2c(c1)c(CC(=O)OCc1ccccc1)c(C)n2C(=O)c1ccc(Cl)cc1,3.61,,
COc1ccc2c(c1)c(CC(=O)Oc1c(Cl)c(Cl)c(Cl)c(Cl)c1Cl)c(C)n2C(=O)c1ccc(Cl)cc1,0,,
CCCCOC(=O)c1ccc(OC(=O)Cc2c(C)n(C(=O)c3ccc(Cl)cc3)c3ccc(OC)cc23)cc1,7.83,,
CCOC(=O)c1ccc(OC(=O)Cc2c(C)n(C(=O)c3ccc(Cl)cc3)c3ccc(OC)cc23)cc1,19.9,0,12.9
COc1ccc2c(c1)c(CC(=O)Oc1ccc([N+](=O)[O-])cc1)c(C)n2C(=O)c1ccc(Cl)cc1,4.81,,
CCc1ccc(OC(=O)Cc2c(C)n(C(=O)c3ccc(Cl)cc3)c3ccc(OC)cc23)cc1,2.41,,
COc1ccc2c(c1)c(CC(=O)Oc1ccc(Cl)cc1)c(C)n2C(=O)c1ccc(Cl)cc1,0,,

# From ChEMBL document CHEMBL3045409, “Synthesis and biological evaluation of ester derivatives of indomethacin as selective COX-2 inhibitors” (Med Chem Res, 2012)
